Results: patent publication US10030027B2, “Soluble guanylate cyclase stimulators” (MERCK SHARP & DOHME CORP., priority 2015, dated 2018)
pEC50, pKi: −log10 of the molar value.

Legend:
[1] = tested on: Spontaneously hypertensive rats (SHR); experiment: Acute efficacy in spontaneously hypertensive rats (SHR); type: in vivo, rat
Excerpt: Acute Efficacy in Spontaneously Hypertensive Rats (SHR)
Spontaneously hypertensive rats (SHR, male, Charles River) were implanted with DSI TA11PA-C40 telemetry device (Data Sciences, Inc., St. Paul, Minn.) under isoflurane or ketamine/metomidine anesthesia. The telemetry unit catheter was inserted into the descending aorta via the femoral artery and the telemetry device was implanted subcutaneously in the left flank area. Animals were allowed to recover from surgery for 14 days before the start of any studies. Blood pressure, heart rate, and activity signals from conscious, freely moving rats were recorded continuously for 30 seconds every 10 minutes. On the day prior to administration of compound, a single oral dose of vehicle (10% transcutol/20% Cremophor/70% water) was administered to all animals to establish baseline control data. The blood pressure lowering efficacy of compound (PO) or vehicle was evaluated following a single oral gavage. Data were collected as hourly averages, and changes in blood pressure were calculated by subtracting control baseline data on an hourly basis. Animals were maintained on normal diet with a 12 hour light-dark cycle.
Maximum peak decreases of systolic blood pressure (SBP) in SHR at a particular P.O. dose (mpk milligrams per kilogram) for the following Example compounds are provided.

sGC α1/β1 heterodimer = sGC α1/β1 heterodimer (Homo sapiens (Human), UniProt Q02108+Q02153); experiment: Cell-based sGC functional assay (cyclic GMP assay for sGC activator: CASA assay); details: CHO-K1/sGC cells; for Emax: CHO-K1, activity expressed as percentage of compound A (standard), read-out: % Activation; for pEC50: inflection point, 4P fit, read-out: IP
In short: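 CHO-K1 cells stably expressing sGC α1/β1 were pre-incubated with or without 1 μM DETA-NO (30 min, 25 °C), then exposed to compounds for 1 hr at 37 °C with 0.5 mM IBMX. Intracellular cGMP was read by HTRF and expressed as a percentage of a reference heme-dependent activator's maximum.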

[2] = target: human recombinant sGC enzyme (Homo sapiens (Human), UniProt Q02108+Q02153); experiment: Size Exclusion Chromatography (SEC) competition binding assay using [3H] Ex-77B as the radioligand; details: [3H] Ex-77B radioligand, 24 hours at 37° C.
In short: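 Recombinant human sGC binding measured by competition against tritiated Ex-77B radioligand, with non-specific binding defined by 1 μM unlabeled Ex-77B.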

Compound | Category: maximum peak decrease of systolic blood pressure (SBP) in SHR ([1]; Dose P.O. 3 mpk) | Emax (sGC α1/β1 heterodimer) [%] | pEC50 (sGC α1/β1 heterodimer) | pKi [2] | Category: maximum peak decrease of systolic blood pressure (SBP) in SHR ([1]; Dose P.O. 1 mpk)
CC(C)(C)CCCn1nc(-c2nc(N)c3c(n2)NC(=O)[C@@]3(C)c2ccc(CCC(=O)O)cc2)c2ccc(Cl)cc21 [Example 52B, (S)-3-(4-{4-amino-2-[6-chloro-1-(4,4-dimethylpentyl)-1H-indazol-3-yl]-5-methyl-6-oxo-6,7-dihydro-5H-pyrrolo[2,3-d]pyrimidin-5-yl}phenyl)propanoic acid] | A (decrease in SBP in SHRs 5-25 mmHg) | 109 | 6.30 | 9.38 | 
C[C@@]1(c2ccc(CCC(=O)O)cc2)C(=O)Nc2nc(-c3nn(CC4CCC(F)(F)CC4)c4cc(Cl)ccc34)nc(N)c21 [Example 58B, (S)-3-(4-[4-amino-2-{6-chloro-1-[(4,4-difluorocyclohexyl)methyl]-1H-indazol-3-yl}-5-methyl-6-oxo-6,7-dihydro-5H-pyrrolo[2,3-d]pyrimidin-5-yl]phenyl)propanoic acid] | A (decrease in SBP in SHRs 5-25 mmHg) | 65 | 5.95 | 9.31 | 
Cc1ccc2c(-c3nc(N)c4c(n3)NC(=O)[C@@]4(C)c3ccc(CCC(=O)O)cc3)nn(Cc3ccccc3F)c2c1 [Example 59B, (S)-3-(4-{4-amino-2-[1-(2-fluorobenzyl)-6-methyl-1H-indazol-3-yl]-5-methyl-6-oxo-6,7-dihydro-5H-pyrrolo[2,3-d]pyrimidin-5-yl}phenyl)propanoic acid] | A (decrease in SBP in SHRs 5-25 mmHg) | 116 | 6.07 | 9.53 | 
CC(C)(CC(=O)O)c1csc([C@]2(C)C(=O)Nc3nc(-c4nn(CCC(F)(F)C(F)(F)F)c5ncccc45)nc(N)c32)n1 [Example 79B, (S)-3-(2-{4-amino-5-methyl-6-oxo-2-[1-(3,3,4,4,4-pentafluorobutyl)-1H-pyrazolo[3,4-b]pyridin-3-yl]-6,7-dihydro-5H-pyrrolo[2,3-d]pyrimidin-5-yl}-1,3-thiazol-4-yl)-3-methylbutanoic acid] | A (decrease in SBP in SHRs 5-25 mmHg) | 124 | 6.07 | 9.38 | 
CCCCn1nc(-c2nc(N)c3c(n2)NC(=O)C3(C)c2nc(CC(C)(C)C(=O)O)cs2)c2cccnc21 (stereo not shown) [Example 86A, 3-{2-[4-amino-2-(1-butyl-1H-pyrazolo[3,4-b]pyridin-3-yl)-5-methyl-6-oxo-6,7-dihydro-5H-pyrrolo[2,3-d]pyrimidin-5-yl]-1,3-thiazol-4-yl}-2,2-dimethylpropanoic acid] |  | 102 | 6.61 | 9.49 | A (decrease in SBP in SHRs 5-25 mmHg)
CC(C)(Cc1csc([C@]2(C)C(=O)Nc3nc(-c4nn(CCCC(F)(F)F)c5nc(Cl)ccc45)nc(N)c32)n1)C(=O)O [Example 89B, (S)-3-(2-{4-amino-2-[6-chloro-1-(4,4,4-trifluorobutyl)-1H-pyrazolo[3,4-b]pyridin-3-yl]-5-methyl-6-oxo-6,7-dihydro-5H-pyrrolo[2,3-d]pyrimidin-5-yl}-1,3-thiazol-4-yl)-2,2-dimethylpropanoic acid] | B (decrease in SBP in SHRs 25-40 mmHg) | 108 | 6.35 | 9.46 | 
CC(C)(Cc1csc([C@]2(C)C(=O)Nc3nc(-c4nn(Cc5ccccc5F)c5ncccc45)nc(N)c32)n1)C(=O)O [Example 90B, (S)-3-(2-{4-amino-2-[1-(2-fluorobenzyl)-1H-pyrazolo[3,4-b]pyridin-3-yl]-5-methyl-6-oxo-6,7-dihydro-5H-pyrrolo[2,3-d]pyrimidin-5-yl}-1,3-thiazol-4-yl)-2,2-dimethylpropanoic acid] |  | 112 | 6.89 | 10.20 | B (decrease in SBP in SHRs 25-40 mmHg)
